Organism: Rattus norvegicus
Assay: DrugMatrix - Regimen: Daily Repeat
Assay type: toxicity, organism-based, Sprague-Dawley
Parameters: regimen Daily Repeat, gender Male, age 6-8 weeks
Conditions: in vivo, vehicle 100 % SALINE; for ABSOLUTE MONOCYTE / ABSOLUTE SEGMENTED NEUTROPHIL / BASOPHIL / EOSINOPHIL / ERYTHROCYTE COUNT / HEMATOCRIT / HEMOGLOBIN / LEUKOCYTE COUNT / LYMPHOCYTE / MEAN CORPUSCULAR HEMOGLOBIN / MEAN CORPUSCULAR HEMOGLOBIN CONCENTRATION / MEAN CORPUSCULAR VOLUME / MONOCYTE / NEUTROPHIL / PLATELET COUNT / ABSOLUTE BASOPHIL / ABSOLUTE EOSINOPHIL / ABSOLUTE LYMPHOCYTE: tissue Blood; for ALANINE AMINOTRANSFERASE / ALBUMIN / ALKALINE PHOSPHATASE / ASPARTATE AMINOTRANSFERASE / BLOOD UREA NITROGEN / CHLORIDE / CHOLESTEROL / CREATINE PHOSPHOKINASE / CREATININE / GLUCOSE / LACTATE DEHYDROGENASE / LIPASE / PHOSPHORUS / POTASSIUM / SODIUM / TOTAL BILIRUBIN / TOTAL PROTEIN / URIC ACID: tissue Plasma
[1] = ip, 160 mg/kg, 120 h, route intraperitoneal, dose level High, time 5 day
[2] = ip, 160 mg/kg, […], route intraperitoneal, dose level High, time 14 day
[3] = ip, 160 mg/kg, […], route intraperitoneal, dose level High, time 28 day
[4] = iv, 0 mg/kg, 72 h, dose level Control, time 3 day

NCC[C@H](O)C(=O)N[C@@H]1C[C@H](N)[C@@H](O[C@H]2O[C@H](CN)[C@@H](O)[C@H](O)[C@H]2O)[C@H](O)[C@H]1O[C@H]1O[C@H](CO)[C@@H](O)[C@H](N)[C@H]1O [AMIKACIN]
ABSOLUTE MONOCYTE [1]: 130 cells/µL
ABSOLUTE SEGMENTED NEUTROPHIL [1]: 830 cells/µL
BASOPHIL [1]: 0.52%
EOSINOPHIL [1]: 0.92%
ERYTHROCYTE COUNT [1]: 7.72 x10E6/uL
HEMATOCRIT [1]: 47.66%
HEMOGLOBIN [1]: 15.46 G/DL
LEUKOCYTE COUNT [1]: 8.36 x10E3/uL
LYMPHOCYTE [1]: 86.2%
MEAN CORPUSCULAR HEMOGLOBIN [1]: 20.02 pg
MEAN CORPUSCULAR HEMOGLOBIN CONCENTRATION [1]: 32.44 G/DL
MEAN CORPUSCULAR VOLUME [1]: 61.7 fL
MONOCYTE [1]: 1.62%
NEUTROPHIL [1]: 10.4%
PLATELET COUNT [1]: 1365.6 x10E3/uL
ALANINE AMINOTRANSFERASE [1]: 28.8 u/L
ALBUMIN [1]: 3.56 G/DL
ALKALINE PHOSPHATASE [1]: 209.4 u/L
ASPARTATE AMINOTRANSFERASE [1]: 80.6 u/L
BLOOD UREA NITROGEN [1]: 14.6 mg/dL
CHLORIDE [1]: 107.2 MEQ/L
CHOLESTEROL [1]: 62.4 mg/dL
CREATINE PHOSPHOKINASE [1]: 231.2 u/L
CREATININE [1]: 0.56 mg/dL
GLUCOSE [1]: 136.6 mg/dL
LACTATE DEHYDROGENASE [1]: 109.8 u/L
LIPASE [1]: 23.8 u/L
PHOSPHORUS [1]: 11.74 mg/dL
POTASSIUM [1]: 5.46 MEQ/L
SODIUM [1]: 147 MEQ/L
TOTAL BILIRUBIN [1]: 0.22 mg/dL
TOTAL PROTEIN [1]: 6.1 G/DL
URIC ACID [1]: 1.12 mg/dL
ABSOLUTE BASOPHIL [2]: 120 cells/µL
ABSOLUTE EOSINOPHIL [2]: 120 cells/µL
ABSOLUTE LYMPHOCYTE [2]: 10400 cells/µL
ABSOLUTE MONOCYTE [2]: 290 cells/µL
ABSOLUTE SEGMENTED NEUTROPHIL [2]: 1840 cells/µL
BASOPHIL [2]: 0.88%
EOSINOPHIL [2]: 0.88%
ERYTHROCYTE COUNT [2]: 7.68 x10E6/uL
HEMATOCRIT [2]: 45.32%
HEMOGLOBIN [2]: 14.88 G/DL
LEUKOCYTE COUNT [2]: 12.88 x10E3/uL
LYMPHOCYTE [2]: 80.34%
MEAN CORPUSCULAR HEMOGLOBIN [2]: 19.4 pg
MEAN CORPUSCULAR HEMOGLOBIN CONCENTRATION [2]: 32.88 G/DL
MEAN CORPUSCULAR VOLUME [2]: 59.02 fL
MONOCYTE [2]: 2.26%
NEUTROPHIL [2]: 15.14%
PLATELET COUNT [2]: 1513.4 x10E3/uL
ABSOLUTE BASOPHIL [3]: 97 cells/µL
ABSOLUTE EOSINOPHIL [3]: 87 cells/µL
ABSOLUTE LYMPHOCYTE [3]: 9100 cells/µL
ABSOLUTE MONOCYTE [3]: 180 cells/µL
ABSOLUTE SEGMENTED NEUTROPHIL [3]: 1340 cells/µL
BASOPHIL [3]: 0.88%
EOSINOPHIL [3]: 0.84%
ERYTHROCYTE COUNT [3]: 7.95 x10E6/uL
HEMATOCRIT [3]: 44.83%
HEMOGLOBIN [3]: 14.88 G/DL
LEUKOCYTE COUNT [3]: 10.86 x10E3/uL
LYMPHOCYTE [3]: 83.57%
MEAN CORPUSCULAR HEMOGLOBIN [3]: 18.72 pg
MEAN CORPUSCULAR HEMOGLOBIN CONCENTRATION [3]: 33.24 G/DL
MEAN CORPUSCULAR VOLUME [3]: 56.35 fL
MONOCYTE [3]: 1.64%
NEUTROPHIL [3]: 12.66%
PLATELET COUNT [3]: 1439.3 x10E3/uL
ALANINE AMINOTRANSFERASE [2]: 30.4 u/L
ALBUMIN [2]: 3.44 G/DL
ALKALINE PHOSPHATASE [2]: 190.6 u/L
ASPARTATE AMINOTRANSFERASE [2]: 79.6 u/L
BLOOD UREA NITROGEN [2]: 13 mg/dL
CHLORIDE [2]: 107.8 MEQ/L
CHOLESTEROL [2]: 70.8 mg/dL
CREATINE PHOSPHOKINASE [2]: 151.2 u/L
CREATININE [2]: 0.5 mg/dL
GLUCOSE [2]: 119.8 mg/dL
LACTATE DEHYDROGENASE [2]: 78.6 u/L
LIPASE [2]: 32 u/L
PHOSPHORUS [2]: 9.94 mg/dL
POTASSIUM [2]: 5.62 MEQ/L
SODIUM [2]: 150.6 MEQ/L
TOTAL BILIRUBIN [2]: 0.2 mg/dL
TOTAL PROTEIN [2]: 6.18 G/DL
URIC ACID [2]: 0.66 mg/dL
ALANINE AMINOTRANSFERASE [3]: 29.6 u/L
ALBUMIN [3]: 3.6 G/DL
ALKALINE PHOSPHATASE [3]: 128.89 u/L
ASPARTATE AMINOTRANSFERASE [3]: 84.7 u/L
BLOOD UREA NITROGEN [3]: 17.7 mg/dL
CHLORIDE [3]: 105.6 MEQ/L
CHOLESTEROL [3]: 62.1 mg/dL
CREATINE PHOSPHOKINASE [3]: 292.2 u/L
CREATININE [3]: 0.65 mg/dL
GLUCOSE [3]: 136.2 mg/dL
LACTATE DEHYDROGENASE [3]: 129.6 u/L
LIPASE [3]: 17.1 u/L
PHOSPHORUS [3]: 10.04 mg/dL
POTASSIUM [3]: 6.81 MEQ/L
SODIUM [3]: 152.5 MEQ/L
TOTAL BILIRUBIN [3]: 0.26 mg/dL
TOTAL PROTEIN [3]: 6.48 G/DL
URIC ACID [3]: 1.45 mg/dL
ABSOLUTE BASOPHIL [4]: 0 CELLS/uL
ABSOLUTE EOSINOPHIL [4]: 0 CELLS/uL
ABSOLUTE LYMPHOCYTE [4]: 7637.67 CELLS/uL
ABSOLUTE MONOCYTE [4]: 67.83 CELLS/uL
ABSOLUTE SEGMENTED NEUTROPHIL [4]: 661.17 CELLS/uL
BASOPHIL [4]: 0%

Source: ChEMBL document CHEMBL3885881, “DrugMatrix”
